ChEMBL document CHEMBL1142351, “Synthesis and characterization of 8-ethynyl-1,3-dihydro-benzo[b][1,4]diazepin-2-one derivatives: part 2. New potent non-competitive metabotropic glutamate receptor 2/3 antagonists” (Bioorg Med Chem Lett, 2008)
Active and inactive are the calls of the source. The rule behind the calls is not given here.

How the values were obtained:
[1] = biological target: T1, Metabotropic glutamate receptor 2 (Rattus norvegicus, UniProt P31421); assay: Displacement of [3H]LY354740 from rat recombinant mGluR2 expressed in CHO cells; assay type: cell-based
T1 sequence (P31421 whole entry): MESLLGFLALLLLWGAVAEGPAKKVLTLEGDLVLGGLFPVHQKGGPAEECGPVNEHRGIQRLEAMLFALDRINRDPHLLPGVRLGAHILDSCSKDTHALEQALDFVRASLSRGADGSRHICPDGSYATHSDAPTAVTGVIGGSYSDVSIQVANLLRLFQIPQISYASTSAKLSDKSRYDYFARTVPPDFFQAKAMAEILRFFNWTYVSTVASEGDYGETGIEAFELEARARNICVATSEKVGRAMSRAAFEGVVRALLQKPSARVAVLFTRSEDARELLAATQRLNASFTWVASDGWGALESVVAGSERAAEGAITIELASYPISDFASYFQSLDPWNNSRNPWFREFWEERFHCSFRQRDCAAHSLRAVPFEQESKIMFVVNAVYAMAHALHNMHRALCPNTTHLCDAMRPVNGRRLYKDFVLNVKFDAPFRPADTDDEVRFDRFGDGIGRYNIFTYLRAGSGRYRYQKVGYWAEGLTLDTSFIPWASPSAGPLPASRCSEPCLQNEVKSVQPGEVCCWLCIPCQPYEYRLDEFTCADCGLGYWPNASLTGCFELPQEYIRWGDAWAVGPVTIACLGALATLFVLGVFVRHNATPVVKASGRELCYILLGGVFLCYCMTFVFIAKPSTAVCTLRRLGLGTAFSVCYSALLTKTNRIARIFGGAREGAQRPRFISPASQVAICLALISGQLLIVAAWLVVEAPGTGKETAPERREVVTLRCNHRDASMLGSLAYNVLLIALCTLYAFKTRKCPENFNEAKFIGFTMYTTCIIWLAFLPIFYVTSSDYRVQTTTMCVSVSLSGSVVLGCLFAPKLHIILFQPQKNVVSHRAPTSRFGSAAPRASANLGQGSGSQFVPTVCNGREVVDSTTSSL

[2] = biological target: T1, Metabotropic glutamate receptor 2; assay: Antagonist activity at rat mGluR2 assessed as effect on (1S,3R)-ACPD-induced inhibition of forskolin-stimulated cAMP production; assay type: functional
[3] = biological target: Metabotropic glutamate receptor 2 (Rattus norvegicus) (UniProt P31421); assay: Antagonist activity at rat mGluR2 transiently transfected in CHO cells expressing GIRKs assessed as inhibition of glutamate-induced reversible inward K+ current; assay type: functional, cell-based
Metabotropic glutamate receptor 2 (Rattus norvegicus), sequence (P31421 19-872 limits assumed): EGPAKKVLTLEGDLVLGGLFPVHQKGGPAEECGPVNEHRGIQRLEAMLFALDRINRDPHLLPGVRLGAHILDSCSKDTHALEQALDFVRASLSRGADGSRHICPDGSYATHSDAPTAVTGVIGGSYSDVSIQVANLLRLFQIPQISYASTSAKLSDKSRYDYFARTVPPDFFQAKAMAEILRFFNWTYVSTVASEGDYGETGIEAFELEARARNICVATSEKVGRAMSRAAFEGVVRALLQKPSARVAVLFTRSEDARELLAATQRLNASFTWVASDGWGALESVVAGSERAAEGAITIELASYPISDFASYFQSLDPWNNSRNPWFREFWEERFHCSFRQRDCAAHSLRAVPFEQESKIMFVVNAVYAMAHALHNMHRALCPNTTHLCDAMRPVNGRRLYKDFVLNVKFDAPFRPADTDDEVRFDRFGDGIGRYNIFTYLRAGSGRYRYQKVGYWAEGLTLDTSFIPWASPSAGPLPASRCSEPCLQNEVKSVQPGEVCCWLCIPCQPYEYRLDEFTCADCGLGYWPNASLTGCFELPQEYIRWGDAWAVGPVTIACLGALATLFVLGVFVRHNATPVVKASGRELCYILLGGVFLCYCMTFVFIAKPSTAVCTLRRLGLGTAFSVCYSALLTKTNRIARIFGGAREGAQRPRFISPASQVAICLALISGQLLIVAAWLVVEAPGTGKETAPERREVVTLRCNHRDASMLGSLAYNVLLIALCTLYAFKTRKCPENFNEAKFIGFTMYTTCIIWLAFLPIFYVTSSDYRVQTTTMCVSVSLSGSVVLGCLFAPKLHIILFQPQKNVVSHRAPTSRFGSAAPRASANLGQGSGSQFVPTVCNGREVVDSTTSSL

Rattus norvegicus [4] = organism: Rattus norvegicus; assay: Antagonist activity at mGluR group 2 in rat hippocampus assessed as reversal of LY-354740-mediated inhibition of fEPSPs in dentate gyrus; assay type: functional, tissue-based
[5] = Binding affinity to GABAA
Rattus norvegicus [6] = organism: Rattus norvegicus; assay: Antagonist activity at mGluR group 2 in rat hippocampus assessed as blockade of LY-354740-mediated inhibition of fEPSPs after 3 hrs; assay type: functional, tissue-based
[7] = Binding affinity to NMDA
[8] = biological target: Metabotropic glutamate receptor 3 (Rattus norvegicus) (UniProt P31422); assay: Antagonist activity at rat mGluR3 transiently transfected in CHO cells expressing GIRKs assessed as inhibition of glutamate-induced reversible inward K+ current; assay type: functional, cell-based
Metabotropic glutamate receptor 3 (Rattus norvegicus), sequence (P31422 23-879 limits assumed): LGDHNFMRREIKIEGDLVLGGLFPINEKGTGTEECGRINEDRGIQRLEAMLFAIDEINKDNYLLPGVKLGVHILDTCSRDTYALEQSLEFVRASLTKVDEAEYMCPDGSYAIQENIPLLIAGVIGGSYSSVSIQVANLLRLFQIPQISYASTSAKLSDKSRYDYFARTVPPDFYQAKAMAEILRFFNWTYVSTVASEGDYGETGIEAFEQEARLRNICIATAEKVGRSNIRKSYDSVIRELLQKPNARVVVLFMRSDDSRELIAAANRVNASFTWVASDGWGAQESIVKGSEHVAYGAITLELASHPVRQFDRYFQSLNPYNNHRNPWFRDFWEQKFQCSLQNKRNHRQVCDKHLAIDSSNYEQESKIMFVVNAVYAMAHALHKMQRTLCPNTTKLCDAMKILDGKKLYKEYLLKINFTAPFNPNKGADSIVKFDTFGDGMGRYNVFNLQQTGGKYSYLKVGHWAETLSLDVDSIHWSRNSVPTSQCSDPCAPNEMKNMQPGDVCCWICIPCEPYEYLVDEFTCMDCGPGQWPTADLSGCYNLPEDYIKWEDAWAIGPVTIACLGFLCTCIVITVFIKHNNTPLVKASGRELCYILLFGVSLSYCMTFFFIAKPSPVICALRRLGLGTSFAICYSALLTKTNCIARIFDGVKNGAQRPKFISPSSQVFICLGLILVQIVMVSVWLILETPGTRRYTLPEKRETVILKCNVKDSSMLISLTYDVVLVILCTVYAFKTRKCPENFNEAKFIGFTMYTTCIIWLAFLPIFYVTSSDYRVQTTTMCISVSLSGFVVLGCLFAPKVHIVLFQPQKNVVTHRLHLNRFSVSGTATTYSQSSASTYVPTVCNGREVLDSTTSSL

[9] = biological target: Metabotropic glutamate receptor 8 (Rattus norvegicus) (UniProt P70579); assay: (§1) Displacement of [3H]-L-AP4 from rat mGluR8
Metabotropic glutamate receptor 8 (Rattus norvegicus), sequence (P70579 whole entry): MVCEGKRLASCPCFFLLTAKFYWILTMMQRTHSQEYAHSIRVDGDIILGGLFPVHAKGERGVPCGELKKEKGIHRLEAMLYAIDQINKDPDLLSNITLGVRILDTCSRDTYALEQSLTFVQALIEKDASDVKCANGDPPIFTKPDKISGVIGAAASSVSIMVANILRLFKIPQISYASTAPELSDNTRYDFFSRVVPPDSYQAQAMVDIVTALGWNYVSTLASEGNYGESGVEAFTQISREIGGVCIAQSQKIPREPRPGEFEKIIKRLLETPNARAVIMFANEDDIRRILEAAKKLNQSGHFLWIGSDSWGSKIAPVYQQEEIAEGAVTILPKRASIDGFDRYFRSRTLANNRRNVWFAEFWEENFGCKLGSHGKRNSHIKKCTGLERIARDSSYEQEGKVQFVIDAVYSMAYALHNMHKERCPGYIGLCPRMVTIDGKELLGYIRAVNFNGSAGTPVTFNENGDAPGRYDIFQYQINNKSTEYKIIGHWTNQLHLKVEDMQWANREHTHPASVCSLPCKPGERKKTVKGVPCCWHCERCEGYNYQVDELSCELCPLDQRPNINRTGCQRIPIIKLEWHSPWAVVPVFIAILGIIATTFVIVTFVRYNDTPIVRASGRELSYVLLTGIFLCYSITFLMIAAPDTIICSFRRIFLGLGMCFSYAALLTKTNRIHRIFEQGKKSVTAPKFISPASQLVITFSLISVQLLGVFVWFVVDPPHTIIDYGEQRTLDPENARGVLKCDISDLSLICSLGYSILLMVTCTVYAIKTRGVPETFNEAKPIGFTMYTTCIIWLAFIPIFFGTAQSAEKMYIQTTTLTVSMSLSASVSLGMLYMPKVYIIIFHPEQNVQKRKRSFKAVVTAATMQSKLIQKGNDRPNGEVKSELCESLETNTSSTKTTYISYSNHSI

[10] = biological target: T1, Metabotropic glutamate receptor 2; assay: Displacement of [3H]LY354740 from rat mGluR2
[11] = biological target: Metabotropic glutamate receptor 8 (Rattus norvegicus, UniProt P70579); assay: as §1
Metabotropic glutamate receptor 8, sequence (P70579 whole entry): as above

IC50 [1] [µM]	IC50 [2] [µM]	Compound	also measured
0.006	0.012	O=C1CC(c2cccc(-n3ccnn3)c2)=Nc2ccc(C#Cc3ccc(F)cc3)cc2N1	–
0.026	0.011	O=C1CC(c2cccc(-n3ccnc3)c2)=Nc2cc(O)c(C#Cc3ccc(F)cc3)cc2N1	Activity [3]: Active; Activity (Rattus norvegicus [4]): Active; Activity [5]: inactive; Activity (Rattus norvegicus [6]): Active; Activity [7]: inactive; Activity [8]: Active; Activity [9]: inactive
–	0.017	N#Cc1cccc(C2=Nc3ccc(C#Cc4ccccc4)cc3NC(=O)C2)c1	–
0.023	0.015	COCCOc1cc2c(cc1C#Cc1ccccc1)NC(=O)CC(c1cccc(-n3ccnc3)c1)=N2	–
0.17	–	Cc1cn(-c2cccc(C3=Nc4ccc(C#Cc5ccccc5)cc4NC(=O)C3)c2)c(C)n1	–
0.046	–	O=C1CC(c2cccc(-n3ccnc3)c2)=Nc2cc(OCCO)c(C#Cc3ccc(F)cc3)cc2N1	–
0.064	–	O=C1CC(c2cccc(-n3ccnc3)c2)=Nc2cc(OCCO)c(C#Cc3ccccc3)cc2N1	–
0.013	0.01	O=C1CC(c2cccc(-n3ccnc3)c2)=Nc2ccc(C#Cc3ccccc3)cc2N1	–
0.009	0.009	O=C1CC(c2cccc(-n3ccnc3)c2)=Nc2ccc(C#Cc3ccc(F)cc3)cc2N1	–
0.098	–	Cc1cn(-c2cccc(C3=Nc4ccc(C#Cc5ccc(F)cc5)cc4NC(=O)C3)c2)cn1	–
0.378	–	O=C1CC(c2cccc(-n3nncc3CO)c2)=Nc2cc(O)c(C#Cc3ccc(F)cc3)cc2N1	–
0.73	–	Cn1ccnc1-c1cccc(C2=Nc3ccc(C#Cc4ccccc4)cc3NC(=O)C2)c1	–
0.036	–	CN(C)c1cc2c(cc1C#Cc1ccccc1)NC(=O)CC(c1cccc(-n3ccnn3)c1)=N2	–
0.098	–	O=C1CC(c2cccc(-n3cncn3)c2)=Nc2ccc(C#Cc3ccc(F)cc3)cc2N1	–
0.02	0.016	O=C1CC(c2cccc(-n3ccnc3)c2)=Nc2ccc(C#Cc3ccccc3F)cc2N1	–
0.072	–	O=C1CC(c2cccc(-n3cnnn3)c2)=Nc2ccc(C#Cc3ccc(F)cc3)cc2N1	–
0.14	–	CN(CCO)c1cc2c(cc1C#Cc1ccc(F)cc1)NC(=O)CC(c1cccc(-n3ccnc3)c1)=N2	–
–	–	Cc1ccc2c(c1)NC(=O)CC(c1ccccc1)=N2	IC50 [10]: 6.4 µM
0.02	0.017	O=C1CC(c2cccc(-n3ccnn3)c2)=Nc2cc(O)c(C#Cc3ccc(F)cc3)cc2N1	Activity [3]: Active; Activity [5]: inactive; Activity [7]: inactive; Activity [8]: Active; IC50 [11]: 5 µM
0.018	0.013	N#CCOc1cc2c(cc1C#Cc1ccccc1)NC(=O)CC(c1cccc(-n3ccnc3)c1)=N2	–
